Laboratory results as given in ChEMBL document CHEMBL2417377, “Hit-to-lead optimization and kinase selectivity of imidazo[1,2-a]quinoxalin-4-amine derived JNK1 inhibitors” (Bioorg Med Chem Lett, 2013).

How the values were obtained:
[1] = target: Mitogen-activated protein kinase 14 (Homo sapiens) (UniProt Q16539); assay: Inhibition of p38alpha in human PC3 cell lysates at 10 uM using desthiobiotin-tagged ATP probe AX9989 followed by trypsinization by LC/MS analysis; details: PC-3
[2] = target: Serine/threonine-protein kinase 10 (Homo sapiens) (UniProt O94804); assay: Inhibition of LOK in human PC3 cell lysates at 10 uM using desthiobiotin-tagged ATP probe AX9989 followed by trypsinization by LC/MS analysis; details: PC-3
[3] = target: T1, Serine/threonine-protein kinase TAO2 (Homo sapiens) (UniProt Q9UL54); assay: Inhibition of TAO2 in human PC3 cell lysates at 10 uM using desthiobiotin-tagged ATP probe AX9989 followed by trypsinization by LC/MS analysis; details: PC-3
T1 sequence (whole entry): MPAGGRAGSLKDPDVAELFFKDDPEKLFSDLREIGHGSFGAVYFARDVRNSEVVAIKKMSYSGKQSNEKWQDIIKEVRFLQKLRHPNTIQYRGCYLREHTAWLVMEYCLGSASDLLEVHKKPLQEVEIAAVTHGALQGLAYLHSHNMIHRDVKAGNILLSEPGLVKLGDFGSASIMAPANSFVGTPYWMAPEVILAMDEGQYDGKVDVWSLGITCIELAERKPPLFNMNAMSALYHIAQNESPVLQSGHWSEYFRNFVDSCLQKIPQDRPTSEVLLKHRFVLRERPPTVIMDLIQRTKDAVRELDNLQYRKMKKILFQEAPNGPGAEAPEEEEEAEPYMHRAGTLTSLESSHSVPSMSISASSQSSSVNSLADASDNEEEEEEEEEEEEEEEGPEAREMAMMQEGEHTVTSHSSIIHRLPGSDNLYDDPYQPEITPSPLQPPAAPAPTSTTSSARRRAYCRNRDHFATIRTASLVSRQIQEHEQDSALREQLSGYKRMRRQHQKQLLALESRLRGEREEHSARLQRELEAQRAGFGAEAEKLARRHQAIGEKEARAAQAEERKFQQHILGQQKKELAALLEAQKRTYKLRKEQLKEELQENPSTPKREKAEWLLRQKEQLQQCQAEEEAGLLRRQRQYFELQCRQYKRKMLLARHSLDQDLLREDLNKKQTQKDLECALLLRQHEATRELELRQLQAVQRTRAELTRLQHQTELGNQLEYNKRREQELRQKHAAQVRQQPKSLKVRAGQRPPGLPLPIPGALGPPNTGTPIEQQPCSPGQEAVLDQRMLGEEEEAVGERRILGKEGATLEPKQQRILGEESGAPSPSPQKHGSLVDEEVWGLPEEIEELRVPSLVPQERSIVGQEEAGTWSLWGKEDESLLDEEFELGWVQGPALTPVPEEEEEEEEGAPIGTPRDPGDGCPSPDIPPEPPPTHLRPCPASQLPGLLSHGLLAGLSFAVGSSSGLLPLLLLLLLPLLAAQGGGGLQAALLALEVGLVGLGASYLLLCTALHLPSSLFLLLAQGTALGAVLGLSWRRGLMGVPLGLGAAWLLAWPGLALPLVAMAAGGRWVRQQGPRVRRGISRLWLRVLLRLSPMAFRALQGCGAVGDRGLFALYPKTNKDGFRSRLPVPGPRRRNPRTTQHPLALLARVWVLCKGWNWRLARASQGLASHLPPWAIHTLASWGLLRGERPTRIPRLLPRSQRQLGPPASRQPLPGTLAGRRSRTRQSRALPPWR

[4] = target: T2, SNF-related serine/threonine-protein kinase (Homo sapiens) (UniProt Q9NRH2); assay: Inhibition of SNRK in human PC3 cell lysates at 10 uM using desthiobiotin-tagged ATP probe AX9989 followed by trypsinization by LC/MS analysis; details: PC-3
T2 sequence (whole entry): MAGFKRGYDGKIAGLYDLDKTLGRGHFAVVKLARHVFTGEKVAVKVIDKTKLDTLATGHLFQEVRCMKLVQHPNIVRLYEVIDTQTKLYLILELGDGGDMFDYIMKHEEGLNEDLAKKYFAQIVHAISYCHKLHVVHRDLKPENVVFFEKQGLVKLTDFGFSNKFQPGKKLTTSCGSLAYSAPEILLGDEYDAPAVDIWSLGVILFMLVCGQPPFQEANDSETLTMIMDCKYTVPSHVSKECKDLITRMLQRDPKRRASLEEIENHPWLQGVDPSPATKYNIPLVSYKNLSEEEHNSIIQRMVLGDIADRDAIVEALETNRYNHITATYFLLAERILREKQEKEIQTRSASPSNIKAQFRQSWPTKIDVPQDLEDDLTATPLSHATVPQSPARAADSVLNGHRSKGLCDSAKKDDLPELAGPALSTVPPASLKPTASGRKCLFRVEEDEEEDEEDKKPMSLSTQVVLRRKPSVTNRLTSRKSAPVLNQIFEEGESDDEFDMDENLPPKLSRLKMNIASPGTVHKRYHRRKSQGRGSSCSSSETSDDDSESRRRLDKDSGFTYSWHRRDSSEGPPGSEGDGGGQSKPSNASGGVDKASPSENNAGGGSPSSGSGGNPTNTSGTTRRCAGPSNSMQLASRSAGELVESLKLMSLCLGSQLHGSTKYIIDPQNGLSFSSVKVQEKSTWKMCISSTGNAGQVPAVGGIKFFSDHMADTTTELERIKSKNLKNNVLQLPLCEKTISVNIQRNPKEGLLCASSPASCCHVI

[5] = target: Ephrin type-A receptor 7 (Homo sapiens) (UniProt Q15375); assay: Inhibition of EphA7 in human PC3 cell lysates at 10 uM using desthiobiotin-tagged ATP probe AX9989 followed by trypsinization by LC/MS analysis; details: PC-3
[6] = target: STE20-like serine/threonine-protein kinase (Homo sapiens) (UniProt Q9H2G2); assay: Inhibition of SLK in human PC3 cell lysates at 10 uM using desthiobiotin-tagged ATP probe AX9989 followed by trypsinization by LC/MS analysis; details: PC-3
[7] = target: T3, Acylglycerol kinase, mitochondrial (Homo sapiens) (UniProt Q53H12); assay: Inhibition of AGK in human PC3 cell lysates at 10 uM using desthiobiotin-tagged ATP probe AX9989 followed by trypsinization by LC/MS analysis; details: PC-3
T3 sequence (whole entry): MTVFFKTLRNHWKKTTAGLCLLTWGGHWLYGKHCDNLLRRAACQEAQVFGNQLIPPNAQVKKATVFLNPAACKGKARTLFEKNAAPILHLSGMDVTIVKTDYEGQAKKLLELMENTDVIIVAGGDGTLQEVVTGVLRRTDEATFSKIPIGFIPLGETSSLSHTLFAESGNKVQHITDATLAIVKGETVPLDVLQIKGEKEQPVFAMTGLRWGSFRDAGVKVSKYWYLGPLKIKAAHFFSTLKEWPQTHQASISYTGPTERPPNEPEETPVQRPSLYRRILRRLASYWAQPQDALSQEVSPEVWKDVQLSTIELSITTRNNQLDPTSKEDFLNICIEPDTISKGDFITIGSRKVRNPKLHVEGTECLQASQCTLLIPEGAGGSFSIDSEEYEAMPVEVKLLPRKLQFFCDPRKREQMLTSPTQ

PC-3 = assay: Inhibition of ANPbeta in human PC3 cell lysates at 10 uM using desthiobiotin-tagged ATP probe AX9989 followed by trypsinization by LC/MS analysis; format: cell-free

Chain of Mitogen-activated protein kinase 14 (Homo sapiens) (Q16539 whole entry): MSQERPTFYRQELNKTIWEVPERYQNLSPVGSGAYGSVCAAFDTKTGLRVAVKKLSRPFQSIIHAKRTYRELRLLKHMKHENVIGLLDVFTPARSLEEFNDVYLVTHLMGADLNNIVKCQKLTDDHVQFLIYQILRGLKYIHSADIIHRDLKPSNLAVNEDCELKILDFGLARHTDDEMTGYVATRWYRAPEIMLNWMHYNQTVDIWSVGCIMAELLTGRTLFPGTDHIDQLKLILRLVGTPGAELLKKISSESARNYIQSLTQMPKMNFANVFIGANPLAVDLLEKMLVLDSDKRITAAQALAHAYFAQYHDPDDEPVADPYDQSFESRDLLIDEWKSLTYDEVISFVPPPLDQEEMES
Chain of Serine/threonine-protein kinase 10 (Homo sapiens) (O94804 whole entry, looked up): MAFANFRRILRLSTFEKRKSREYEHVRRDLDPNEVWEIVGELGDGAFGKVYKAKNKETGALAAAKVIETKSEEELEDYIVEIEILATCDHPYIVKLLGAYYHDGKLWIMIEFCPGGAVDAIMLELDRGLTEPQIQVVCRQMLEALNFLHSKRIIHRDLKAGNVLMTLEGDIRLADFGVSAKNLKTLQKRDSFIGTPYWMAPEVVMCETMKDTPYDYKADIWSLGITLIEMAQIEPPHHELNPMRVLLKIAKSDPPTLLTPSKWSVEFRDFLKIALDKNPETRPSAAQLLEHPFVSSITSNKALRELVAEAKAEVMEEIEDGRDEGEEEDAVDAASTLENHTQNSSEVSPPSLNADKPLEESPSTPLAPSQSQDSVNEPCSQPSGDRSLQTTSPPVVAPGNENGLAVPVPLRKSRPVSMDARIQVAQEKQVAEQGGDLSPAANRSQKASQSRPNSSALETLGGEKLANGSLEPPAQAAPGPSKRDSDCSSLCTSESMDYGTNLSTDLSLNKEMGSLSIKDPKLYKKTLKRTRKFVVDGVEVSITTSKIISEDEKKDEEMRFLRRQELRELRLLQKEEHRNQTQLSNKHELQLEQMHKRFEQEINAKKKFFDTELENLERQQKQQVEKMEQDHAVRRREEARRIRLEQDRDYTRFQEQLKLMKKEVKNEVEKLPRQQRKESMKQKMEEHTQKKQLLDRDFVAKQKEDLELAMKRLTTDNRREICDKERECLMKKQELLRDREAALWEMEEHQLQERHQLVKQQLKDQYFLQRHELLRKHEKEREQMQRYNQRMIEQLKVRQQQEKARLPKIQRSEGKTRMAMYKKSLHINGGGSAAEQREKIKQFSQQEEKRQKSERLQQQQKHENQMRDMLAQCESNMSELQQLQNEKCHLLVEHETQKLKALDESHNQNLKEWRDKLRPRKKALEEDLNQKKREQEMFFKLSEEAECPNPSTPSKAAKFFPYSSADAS
Chain of STE20-like serine/threonine-protein kinase (Homo sapiens) (Q9H2G2 whole entry, looked up): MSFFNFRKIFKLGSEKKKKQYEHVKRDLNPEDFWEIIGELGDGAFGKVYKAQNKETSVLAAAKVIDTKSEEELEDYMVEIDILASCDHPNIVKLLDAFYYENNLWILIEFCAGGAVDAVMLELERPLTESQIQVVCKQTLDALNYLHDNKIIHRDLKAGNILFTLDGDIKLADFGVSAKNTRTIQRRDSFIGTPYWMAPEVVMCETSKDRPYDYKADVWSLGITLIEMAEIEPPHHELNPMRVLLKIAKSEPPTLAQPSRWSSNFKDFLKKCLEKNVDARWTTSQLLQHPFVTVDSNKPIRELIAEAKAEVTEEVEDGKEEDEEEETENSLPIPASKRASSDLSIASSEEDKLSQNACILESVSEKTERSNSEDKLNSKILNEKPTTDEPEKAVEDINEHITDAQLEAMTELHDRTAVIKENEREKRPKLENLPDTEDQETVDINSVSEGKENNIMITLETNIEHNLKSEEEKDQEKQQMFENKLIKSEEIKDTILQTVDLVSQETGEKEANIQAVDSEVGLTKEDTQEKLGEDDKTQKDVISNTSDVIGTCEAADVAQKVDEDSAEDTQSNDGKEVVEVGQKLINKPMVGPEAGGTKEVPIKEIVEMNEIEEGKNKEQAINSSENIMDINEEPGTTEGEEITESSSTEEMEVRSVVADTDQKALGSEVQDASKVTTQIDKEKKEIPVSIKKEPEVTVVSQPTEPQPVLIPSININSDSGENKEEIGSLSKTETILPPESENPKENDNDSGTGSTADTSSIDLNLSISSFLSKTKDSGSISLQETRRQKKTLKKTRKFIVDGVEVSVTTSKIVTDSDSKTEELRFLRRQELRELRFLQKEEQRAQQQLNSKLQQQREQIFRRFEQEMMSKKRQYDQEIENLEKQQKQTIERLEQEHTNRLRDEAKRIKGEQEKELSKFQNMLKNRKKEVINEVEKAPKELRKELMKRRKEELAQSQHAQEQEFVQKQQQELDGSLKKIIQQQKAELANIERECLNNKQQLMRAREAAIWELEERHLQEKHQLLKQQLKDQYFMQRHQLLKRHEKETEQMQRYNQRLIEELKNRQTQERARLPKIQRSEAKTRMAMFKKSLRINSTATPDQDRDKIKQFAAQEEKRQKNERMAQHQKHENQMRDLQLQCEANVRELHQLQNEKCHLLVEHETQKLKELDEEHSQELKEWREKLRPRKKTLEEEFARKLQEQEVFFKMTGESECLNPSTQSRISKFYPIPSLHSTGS
Chain of Ephrin type-A receptor 7 (Homo sapiens) (Q15375 28-998 limits assumed): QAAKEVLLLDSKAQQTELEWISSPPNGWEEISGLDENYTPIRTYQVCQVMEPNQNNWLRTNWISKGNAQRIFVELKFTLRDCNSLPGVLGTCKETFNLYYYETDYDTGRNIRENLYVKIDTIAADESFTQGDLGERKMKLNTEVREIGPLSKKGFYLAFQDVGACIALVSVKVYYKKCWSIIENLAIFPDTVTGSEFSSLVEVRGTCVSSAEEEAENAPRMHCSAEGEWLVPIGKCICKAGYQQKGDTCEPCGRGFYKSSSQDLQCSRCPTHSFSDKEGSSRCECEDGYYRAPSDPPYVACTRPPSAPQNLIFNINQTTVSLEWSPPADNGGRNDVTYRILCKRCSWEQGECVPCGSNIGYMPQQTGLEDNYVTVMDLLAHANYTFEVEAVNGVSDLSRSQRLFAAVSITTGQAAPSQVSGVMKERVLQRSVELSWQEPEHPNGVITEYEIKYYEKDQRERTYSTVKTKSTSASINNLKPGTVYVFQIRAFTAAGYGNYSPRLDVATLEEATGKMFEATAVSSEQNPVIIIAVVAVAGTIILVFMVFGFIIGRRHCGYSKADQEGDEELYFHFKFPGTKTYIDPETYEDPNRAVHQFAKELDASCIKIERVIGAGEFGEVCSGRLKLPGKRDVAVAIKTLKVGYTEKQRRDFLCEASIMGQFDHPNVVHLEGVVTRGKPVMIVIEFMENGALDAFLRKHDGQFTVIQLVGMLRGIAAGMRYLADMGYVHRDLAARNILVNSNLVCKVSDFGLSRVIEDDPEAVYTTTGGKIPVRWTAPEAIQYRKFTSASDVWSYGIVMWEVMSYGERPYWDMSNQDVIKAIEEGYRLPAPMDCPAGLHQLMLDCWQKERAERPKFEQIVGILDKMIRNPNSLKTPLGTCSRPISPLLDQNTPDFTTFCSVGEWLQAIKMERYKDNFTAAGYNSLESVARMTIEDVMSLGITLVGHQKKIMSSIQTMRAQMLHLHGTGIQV

SMILES	inhibition [1]	inhibition [2]	inhibition [3]	inhibition [4]	inhibition [5]	inhibition [6]	inhibition [7]	inhibition (PC-3)
O=C(NC1(c2ccccc2)CC1)c1ccc2nc(N[C@H]3CC[C@H](O)CC3)c3nccn3c2c1	< 35%	< 35%	< 35%	< 35%	< 35%	< 35%	< 35%	< 35%
C[C@@H](NC(=O)c1ccc2nc(N[C@H]3CC[C@H](O)CC3)c3nccn3c2c1)c1ccccc1	< 35%	< 35%	< 35%	< 35%	< 35%	< 35%	< 35%	< 35%
O=C(O)c1ccc2nc(N[C@H]3CC[C@H](O)CC3)c3nccn3c2c1	< 35%	< 35%	67%	< 35%	< 35%	< 35%	< 35%	< 35%
O=C(NC1(c2ccc(F)cc2)CC1)c1ccc2nc(N[C@H]3CC[C@H](O)CC3)c3nccn3c2c1	< 35%	< 35%	< 35%	< 35%	< 35%	< 35%	< 35%	< 35%
O=C(NC1(Cc2ccc(F)cc2)CC1)c1ccc2nc(N[C@H]3CC[C@H](O)CC3)c3nccn3c2c1	< 35%	< 35%	< 35%	< 35%	< 35%	< 35%	< 35%	< 35%
CC[C@@H](NC(=O)c1ccc2nc(N[C@H]3CC[C@H](O)CC3)c3nccn3c2c1)c1ccccc1	< 35%	< 35%	< 35%	< 35%	< 35%	< 35%	< 35%	< 35%
CCC[C@@H](NC(=O)c1ccc2nc(N[C@H]3CC[C@H](O)CC3)c3nccn3c2c1)c1ccccc1	< 35%	< 35%	< 35%	< 35%	< 35%	< 35%	< 35%	< 35%
NC(=O)c1ccc2nc(N[C@H]3CC[C@H](O)CC3)c3nccn3c2c1	< 35%	< 35%	< 35%	< 35%	< 35%	< 35%	< 35%	< 35%
O=C(N[C@H](CO)c1ccccc1)c1ccc2nc(N[C@H]3CC[C@H](O)CC3)c3nccn3c2c1	< 35%	< 35%	< 35%	< 35%	< 35%	< 35%	< 35%	< 35%
CC(C)(NC(=O)c1ccc2nc(N[C@H]3CC[C@H](O)CC3)c3nccn3c2c1)c1ccccc1	< 35%	< 35%	< 35%	< 35%	< 35%	< 35%	< 35%	< 35%
C[C@H](NC(=O)c1ccc2nc(N[C@H]3CC[C@H](O)CC3)c3nccn3c2c1)c1ccccc1	< 35%	< 35%	< 35%	< 35%	< 35%	< 35%	< 35%	< 35%
O=C(NC1(c2ccccc2)CCC1)c1ccc2nc(N[C@H]3CC[C@H](O)CC3)c3nccn3c2c1	< 35%	< 35%	< 35%	< 35%	< 35%	< 35%	< 35%	< 35%
